The values below come from patent publication US11696912B2, “Charged ion channel blockers and methods for use” (Nocion Therapeutics, Inc., priority 2019, dated 2023).

Data set [1] has as its target T1, NaV1.7 (Homo sapiens, UniProt Q15858).
T1 construct: expressed in transfected cells; host or cells: Tetracycline-inducible cell line kept under hygromycin and blasticidin selection
The data set is described as follows: Nav1.7 intracellular inhibition, whole cell patch clamp (internal block). Type of data set: cell-based. Conditions: compound in internal solution; for inhibition at 10 µM: test concentration of 10 μM. Here is the method:
(§1) NaV1.7 was expressed upon induction with tetracycline. Cells were cultured in DMEM containing 10% dialyzed Fetal Bovine Serum (VWR, Radnor, Pa.), 1% Glutamax (VWR, Radnor, Pa.), 1% Penicillin-Streptomycin (VWR, Radnor, Pa.), 100 mg/L Hygromycin (Thermo Fisher Scientific, Waltham, Mass. and 5 mg/L Blasticidin (Alfa Aesar, Haverhill MAI Cells were grown and maintained at 37° C. in a humidified environment containing 10% CO2 in air. Cells were detached from the culture flask for passage and harvested using 0.05% Trypsin-EDTA (Thermo Fisher Scientific, Waltham, Mass.). To induce NaV1.7, cells were induced with tetracycline (0.1-1 μg/mL, IBI Scientific, Peosta, Iowa) the day before recording and plated onto 24-well plates. Cells were washed with DPBS (VWR, Radnor, Pa.), trypsinized and then triturated five times in 10 mL of growth media to break apart cell aggregates. For one 24-well plate, 2 mL of cell suspension was mixed with 23 mL of fresh growth media and 0.1-1 μg/mL tetracycline added. 1 ml of mixed media with cells was then added to each well of a 24-well plate, with a 12 mm coverslip already placed in the bottom of the well. Cells were then incubated in 37° C. and 10% CO2 overnight.
(§2) The intracellular solution contained the following (in mM) CsCl 135, NaCl 10, […], HEPES 10, MgCl2 2, adjusted to pH 7.2 with CsOH. The external solution was a normal Ringer solution containing (in mM) NaCl 155, HEPES 10, glucose 10, KCl 3.5, CaCl2 1.5, MgCl2 1 adjusted to pH 7.4 with NaOH. CsCl was from Alfa Aesar, Haverhill Mass. All other chemicals were from Sigma-Aldrich, St. Louis. Mo. In order to test the degree of internal block by test compounds the compounds were dissolved in internal solution at the indicated test concentration. […] In order to test the degree of external block by test compounds the compounds were dissolved in external solution at the indicated test concentration.
(§3) 18-24 hours after cells were induced with tetracycline, coverslips placed into a chamber filled with Normal Ringer solution at room temperature and the chamber placed on a microscope. Pipettes were pulled from borosilicate glass on a P97 puller (Sutter Instrument, Novato, Calif.) and polished with a MF-830 Microforge (Narishige International USA, Inc, Amityville, N.Y.) to have a resistance of 1.5-2.5 MΩ when filled with CsCl internal solution at room temperature. Healthy cells (those that are round and translucent with no visible blemishes) were chosen for seal formation. A seal was formed between the pipette and the cell, and a brief pulse of suction used to “break in” and establish the whole-cell configuration. The membrane potential was held at −100 mV before the voltage protocol began. Only cells with series resistance between 1.5-5 M were retained for analysis. The voltage protocol was as follows: Cells were held at −100 mV for 12 ms followed by a hyperpolarizing step to −105 mV for 12 ms to monitor the leak. Cells were then stepped back to −100 mV for 40 ms. Cells were then depolarized to −20 mV for 10 ms and returned to −100 mV for 26 ms.
(§4) Once the recording was started, the voltage protocol was run at 30 second intervals for 5 minutes to get a stable baseline. This was followed by four 30-second periods of 5 Hz stimulation of the same voltage protocol separated by 1 minute of rest which was then followed by 0.33 Hz stimulation after the last train. Currents were recorded using PatchMaster software with Heka EPC10 (HEKA Electronics, Lambrecht, Germany). Only cells with inward current amplitudes at −20 mV between 400 pA and 4 nA were accepted. In addition, cells having leak currents greater than 10% of their current amplitudes were discarded.
The data was plotted using the Patchmaster software (HEKA Electronics, Lambrecht, Germany) and analyzed by plotting the minimum current during the voltage step to −20 mV (peak inward current) as a function of time. […]

For data set [2], the target named is T1, NaV1.7. The data set can be described thus: Nav1.7 extracellular inhibition, whole cell patch clamp (external block). Type of data set: cell-based. Conditions: compound in external solution; for inhibition at 10 µM: read-out: Nav1.7 extracellular inhibition, extracellular inhibition, read-out: Nav1.7 Intracellular Inhibition; for inhibition at 30 µM: test concentration of 30 μM. Here is the method:
as §1, §2, §3
as §4, with “by” for “by four 30-second periods of”, “run until the end” for “separated by 1 minute”, “experiment. […] The test compound” for “rest which”, “added for 5 minutes before washing out with normal Ringer's solution.” for “then followed by 0.33 Hz stimulation after the last train.”
The data was plotted using the Patchmaster software (HEKA Electronics, Lambrecht, Germany) and analyzed by plotting the minimum current during the voltage step to −20 mV (peak inward current) as a function of time. To determine the % block produced by test compounds applied externally the following was done. […]

Data set [3] can be described thus: PAMPA artificial lipid membrane permeability. Type of data set: in vitro ADME. The note with it: pH 7.4, 4 hours incubation, GIT lipid; for Papp at 4 h, 50 µM: PAMPA. How it is done: The PAMPA assay (pION, Inc., Woburn Mass.) was used to determine the ability of compounds of the invention to cross an artificial lipid membrane by passive diffusion. Test compounds were dissolved in DMSO (10 mM) and diluted 200-fold in buffer (pION Inc., pH 7.4) to provide 50 uM stock solutions. Buffer (150 μL) was added to a UV blank plate and stock solutions (150 μL) were transferred to a UV reference plate. The blank and reference spectrum were read using a spectrophotometer. Stock solutions (200 μL) were added to the donor plate of the PAMPA sandwich plate and an accept plate painted with GIT lipid (pION Inc, 5 μL) was placed on top. Buffer (200 μL) was added to the acceptor plate and the PAMPA sandwich plate was incubated for 4 hours. Aliquots (150 μL) from the acceptor plate were added to a UV plate and read as acceptor spectrum. Aliquots (150 μL) of the donor solutions were added to a UV analysis plate and read as donor spectrum. The permeability coefficient of test compounds was calculated using PAMPA Explorer™ software (version 3.5.0.4) based on the AUC of the reference plate, the donor plate, and the acceptor plate.

T1 sequence (Q15858 whole entry): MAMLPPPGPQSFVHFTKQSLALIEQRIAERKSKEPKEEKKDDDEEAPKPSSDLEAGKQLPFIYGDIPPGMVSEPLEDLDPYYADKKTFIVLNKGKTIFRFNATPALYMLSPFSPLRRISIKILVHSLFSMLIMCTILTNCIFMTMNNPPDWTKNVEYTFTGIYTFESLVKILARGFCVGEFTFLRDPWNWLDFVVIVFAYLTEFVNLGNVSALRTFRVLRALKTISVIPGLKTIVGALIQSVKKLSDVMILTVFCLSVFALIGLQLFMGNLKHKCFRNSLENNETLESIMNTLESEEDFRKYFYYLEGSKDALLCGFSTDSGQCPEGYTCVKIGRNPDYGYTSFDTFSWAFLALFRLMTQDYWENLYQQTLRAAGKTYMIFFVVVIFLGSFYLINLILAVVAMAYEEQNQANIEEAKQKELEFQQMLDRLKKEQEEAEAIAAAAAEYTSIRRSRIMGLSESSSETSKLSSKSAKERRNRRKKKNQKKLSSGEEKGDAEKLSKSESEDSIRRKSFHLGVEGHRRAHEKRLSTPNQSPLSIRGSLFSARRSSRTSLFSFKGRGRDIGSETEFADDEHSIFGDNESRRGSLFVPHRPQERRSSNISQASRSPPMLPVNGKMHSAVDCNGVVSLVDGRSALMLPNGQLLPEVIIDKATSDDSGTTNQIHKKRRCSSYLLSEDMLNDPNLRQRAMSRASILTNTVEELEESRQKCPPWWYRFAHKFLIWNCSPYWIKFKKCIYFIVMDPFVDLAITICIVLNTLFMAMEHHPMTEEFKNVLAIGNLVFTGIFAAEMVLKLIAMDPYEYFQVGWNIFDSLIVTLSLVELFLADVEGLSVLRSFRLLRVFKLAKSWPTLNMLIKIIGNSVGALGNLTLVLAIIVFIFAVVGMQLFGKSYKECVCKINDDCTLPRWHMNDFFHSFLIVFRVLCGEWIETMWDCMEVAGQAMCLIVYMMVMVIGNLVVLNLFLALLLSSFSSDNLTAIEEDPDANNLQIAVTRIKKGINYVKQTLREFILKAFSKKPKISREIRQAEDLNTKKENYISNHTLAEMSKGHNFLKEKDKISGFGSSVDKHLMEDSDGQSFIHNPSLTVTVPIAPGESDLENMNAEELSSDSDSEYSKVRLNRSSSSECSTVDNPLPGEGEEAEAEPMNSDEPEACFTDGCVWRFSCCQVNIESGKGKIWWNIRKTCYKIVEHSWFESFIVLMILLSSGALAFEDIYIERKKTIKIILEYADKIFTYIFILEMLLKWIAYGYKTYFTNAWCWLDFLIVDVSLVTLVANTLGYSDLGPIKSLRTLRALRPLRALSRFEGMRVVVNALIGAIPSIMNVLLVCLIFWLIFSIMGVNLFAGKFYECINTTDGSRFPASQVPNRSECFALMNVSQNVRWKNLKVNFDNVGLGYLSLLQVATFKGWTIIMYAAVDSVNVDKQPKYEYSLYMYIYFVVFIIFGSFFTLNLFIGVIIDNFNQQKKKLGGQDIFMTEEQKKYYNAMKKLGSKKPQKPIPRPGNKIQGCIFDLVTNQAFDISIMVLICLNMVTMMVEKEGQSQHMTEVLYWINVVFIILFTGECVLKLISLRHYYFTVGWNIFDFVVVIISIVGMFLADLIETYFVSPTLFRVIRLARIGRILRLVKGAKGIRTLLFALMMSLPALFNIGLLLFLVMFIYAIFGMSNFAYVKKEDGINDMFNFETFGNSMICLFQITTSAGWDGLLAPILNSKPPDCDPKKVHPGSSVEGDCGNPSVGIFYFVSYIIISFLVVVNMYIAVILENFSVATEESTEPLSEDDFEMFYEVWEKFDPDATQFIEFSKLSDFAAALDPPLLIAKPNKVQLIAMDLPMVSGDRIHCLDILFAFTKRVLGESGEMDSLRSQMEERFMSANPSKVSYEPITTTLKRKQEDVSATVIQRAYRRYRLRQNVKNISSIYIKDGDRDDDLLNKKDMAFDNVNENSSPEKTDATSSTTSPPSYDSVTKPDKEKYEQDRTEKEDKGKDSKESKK

Turning to `Cc1cccc(C(=O)OC(C)(C)C)c1NC(=O)C[n+]1cccn1C1CCCCC1.[Br-]` [D], on NaV1.7 [1], the inhibition at 3 µM is 70 to 90%. Also, the inhibition at 10 µM at NaV1.7 [2] was under 40%. Also, the “PAMPA (10^−6cm/s)” value in data set [3] is recorded as “+ ((<0.1 10^−6 cm/s))”.
The like results for `CCCOC(=O)c1scc(C)c1NC(=O)C[n+]1cccn1C1CCCCC1.[Br-]` [B] were, in that order, over 90%, under 40% and “+ ((<0.1 10^−6 cm/s))”.
At NaV1.7 [1], `COC(=O)c1scc(C)c1NC(=O)C[n+]1cccc(-c2ccccc2)c1` [Compound 23] yielded an inhibition at 3 µM of 40 to 70% and an inhibition at 10 µM of over 70%. At NaV1.7 [2], the inhibition at 10 µM is under 40% and the inhibition at 30 µM was under 30%. Further, in data set [3], the apparent permeability coefficient (Papp) at 4 h, 50 µM is under 1 ×10⁻⁶ cm/s and the “PAMPA (10^−6cm/s)” value is given as “+ ((<0.1 10^−6 cm/s))”.
Turning to `COC(=O)c1scc(C)c1NC(=O)C[n+]1cccn1C1CCCCC1` [Compound 22], at NaV1.7 [1], the inhibition at 3 µM lay within 40 to 70% and the inhibition at 10 µM is over 70%. On NaV1.7 [2], the inhibition at 10 µM was under 40% and the inhibition at 30 µM is under 30%. In addition, in data set [3], the Papp at 4 h, 50 µM was under 1 ×10⁻⁶ cm/s and the “PAMPA (10^−6cm/s)” value was “+ ((<0.1 10^−6 cm/s))”.
In the case of `Cc1csc(C(=O)OC(C)(C)C)c1NC(=O)C[n+]1cccc(-c2ccccc2)c1.[Br-]` [A], the inhibition at 3 µM against NaV1.7 [1] was 70 to 90%. In addition, the inhibition at 10 µM on NaV1.7 [2] lay in the range of 40 to 70%. Besides, the “PAMPA (10^−6cm/s)” value in data set [3] is on record as “+ ((<0.1 10^−6 cm/s))”.
In the same order, the values of `CCOC(=O)c1scc(C)c1NC(=O)C[n+]1cccn1C1CCCCC1` [C] are 70 to 90%, under 40% and “+ ((<0.1 10^−6 cm/s))”.
